# Assay results: patent US7700577B2, “Carbohydrate based anti-bacterials” (Alchemia Limited, priority 2002, dated 2010)
# Experiments:
# [1] = tested on: Staphylococcus aureus (ATCC43300) MRSA; assay: MIC testing, additional organisms: Staphylococcus aureus MRSA; format: cell-based
# From the text: (§1) The broth microdilution format of the National Committee for Clinical Laboratory Standards (NCCLS) approved standard for susceptibility tests as outlined in M7-A4 “methods for dillution Antimicrobial susceptibility tests for bacteria that grow aerobically; approved standard—fifth edition”, January 2000 was utilized for minimum inhibitory concentration testing in Mueller-Hinton broth. The broth for Streptococcus pyogenes testing was supplemented with 2% laked horse blood. A positive result in initial testing was determined by complete inhibition of macroscopic bacterial growth at a concentration of 128 micrograms per mL after incubation for 16 to 24 hours at 37 degrees C. In the case of Micrococcus luteus, incubation was at 30 degrees C.
# (§2) Bacterial Types Are: • SA24 S. aureus after 24 hours exposure • SA48 S. aureus after 48 hours exposure • EC24 E. coli after 24 hours exposure
# (§3) The following compounds were tested against additional organisims with the following results. • 1. Micrococcus luteus (ATCC272) • 2. Staphylococcus aureus (ATCC29213) • 3. Staphylococcus aureus (ATCC43300) MRSA • 4. Enterococcus faecalis (ATCC29212) • 5. Enterococcus faecalis (ATCCS 1299) Vancomycin resistant • 6. Streptococcus pyrogenes (ATCC8668)
# [2] = tested on: Enterococcus faecalis (ATCCS 1299) Vancomycin resistant; assay: MIC testing, additional organisms: Enterococcus faecalis vancomycin resistant; format: cell-based
# From the text: as §1, §2, §3
# [3] = tested on: Streptococcus pyrogenes (ATCC8668); assay: MIC testing, additional organisms: Streptococcus pyrogenes; format: cell-based; conditions: broth supplemented with 2% laked horse blood
# From the text: as §1, §2, §3
# [4] = tested on: S. aureus; assay: MIC testing, broth microdilution (NCCLS), S. aureus; format: cell-based, Staphylococcus aureus; conditions: for SA24 (MIC): S. aureus after 24 hours exposure; for SA48 (MIC): S. aureus after 48 hours exposure
# From the text: (§4) The broth microdilution format of the National Committee for Clinical Laboratory Standards (NCCLS) approved standard for susceptibility tests as outlined in M7-A4 “methods for dillution Antimicrobial susceptibility tests for bacteria that grow aerobically; approved standard—fifth edition”, January 2000 was utilized for minimum inhibitory concentration testing in Mueller-Hinton broth. The broth for Streptococcus pyogenes testing was supplemented with 2% laked horse blood. A positive result in initial testing was determined by complete inhibition of macroscopic bacterial growth at a concentration of 128 micrograms per mL after incubation for 16 to 24 hours at 37 degrees C. In the case of Micrococcus luteus, incubation was at 30 degrees C. […] Bacterial Types Are: • SA24 S. aureus after 24 hours exposure • SA48 S. aureus after 48 hours exposure • EC24 E. coli after 24 hours exposure
# [5] = tested on: Micrococcus luteus (ATCC272); assay: MIC testing, additional organisms: Micrococcus luteus; format: cell-based; conditions: incubation at 30 degrees C
# From the text: as §1, §2, §3
# [6] = tested on: Staphylococcus aureus (ATCC29213); assay: MIC testing, additional organisms: Staphylococcus aureus ATCC29213; format: cell-based
# From the text: as §1, §2, §3
# [7] = tested on: Enterococcus faecalis (ATCC29212); assay: MIC testing, additional organisms: Enterococcus faecalis ATCC29212; format: cell-based
# From the text: as §1, §2, §3
# [8] = tested on: E. coli; assay: MIC testing, broth microdilution (NCCLS), E. coli; format: cell-based; conditions: E. coli after 24 hours exposure
# From the text: as §4
SMILES,"MIC, organism 3 [1]","MIC, organism 5 [2]","MIC, organism 6 [3]",SA24 (MIC) [4],SA48 (MIC) [4],"MIC, organism 1 [5]","MIC, organism 2 [6]","MIC, organism 4 [7]",EC24 (MIC) [8]
CCCCCCCC(=O)Nc1ccc(C(=O)NC2C(CO)OCC(NC(=O)Nc3cccc(C(F)(F)F)c3)C2OC2OC(CO)C(O)C(O)C2NC(=O)Nc2cccc(C(F)(F)F)c2)cc1 (stereo not drawn) [compound 65],− (− indicates an MIC of greater then 128 micrograms per mL),− (− indicates an MIC of greater then 128 micrograms per mL),+ (+ indicates an MIC value of less than 128 micrograms per mL),+ (+ indicates an MIC value of less than 128 micrograms per mL),+ (+ indicates an MIC value of less than 128 micrograms per mL),+ (+ indicates an MIC value of less than 128 micrograms per mL),− (− indicates an MIC of greater then 128 micrograms per mL),+ (+ indicates an MIC value of less than 128 micrograms per mL),
O=C(Nc1cccc(C(F)(F)F)c1)NC1COC(CO)C(NC(=O)c2ccc(-c3ccccc3)cc2)C1OC1OC(CO)C(O)C(O)C1NC(=O)Nc1cccc(C(F)(F)F)c1 (stereo not drawn) [compound 74],+ (+ indicates an MIC value of less than 128 micrograms per mL),+ (+ indicates an MIC value of less than 128 micrograms per mL),+ (+ indicates an MIC value of less than 128 micrograms per mL),+ (+ indicates an MIC value of less than 128 micrograms per mL),,+ (+ indicates an MIC value of less than 128 micrograms per mL),+ (+ indicates an MIC value of less than 128 micrograms per mL),+ (+ indicates an MIC value of less than 128 micrograms per mL),
CCCCCCCCCCS(=O)(=O)NC1C(CO)OCC(NC(=O)Nc2cccc(C(F)(F)F)c2)C1OC1OC(CO)C(O)C(O)C1NC(=O)Nc1cccc(C(F)(F)F)c1 (stereo not drawn) [compound 69],+ (+ indicates an MIC value of less than 128 micrograms per mL),− (− indicates an MIC of greater then 128 micrograms per mL),+ (+ indicates an MIC value of less than 128 micrograms per mL),+ (+ indicates an MIC value of less than 128 micrograms per mL),,+ (+ indicates an MIC value of less than 128 micrograms per mL),+ (+ indicates an MIC value of less than 128 micrograms per mL),+ (+ indicates an MIC value of less than 128 micrograms per mL),
CCCCCCCCCCN[C@H]1C(CO)OCC(NC(=O)Nc2cccc(C(F)(F)F)c2)[C@H]1O[C@@H]1OC(CO)[C@@H](O)[C@H](O)C1NC(=O)Nc1cccc(C(F)(F)F)c1 (stereo partly drawn) [compound 56],+ (+ indicates an MIC value of less than 128 micrograms per mL),+ (+ indicates an MIC value of less than 128 micrograms per mL),+ (+ indicates an MIC value of less than 128 micrograms per mL),+ (+ indicates an MIC value of less than 128 micrograms per mL),+ (+ indicates an MIC value of less than 128 micrograms per mL),+ (+ indicates an MIC value of less than 128 micrograms per mL),+ (+ indicates an MIC value of less than 128 micrograms per mL),+ (+ indicates an MIC value of less than 128 micrograms per mL),
CC(C)=CCCC(C)=CCN[C@H]1C(CO)OCC(NC(=N)Nc2cccc(C(F)(F)F)c2)[C@H]1O[C@@H]1OC(CO)[C@@H](O)[C@H](O)C1NC(=N)Nc1cccc(C(F)(F)F)c1 (stereo partly drawn) [compound 23],,,,+ (+ indicates an MIC value of less than 128 micrograms per mL),+ (+ indicates an MIC value of less than 128 micrograms per mL),,,,+ (+ indicates an MIC value of less than 128 micrograms per mL)
